Experiments:
SW-620 = test: NCI60 one-dose screen (10 μM), Colon Cancer; format: cell-based; details: Homo sapiens; 10 μM; SW-620, Colon Cancer; read-out: Growth percent rate
MOLT-4 = test: NCI60 one-dose screen (10 μM), Leukemia; format: cell-based, human; details: Homo sapiens; 10 μM; MOLT-4, Leukemia; read-out: Growth percent rate
NCI-H23 = test: NCI60 one-dose screen (10 μM), Non-small Cell Lung Cancer; format: cell-based; details: Homo sapiens; 10 μM; NCI-H23, Non-small Cell Lung Cancer; read-out: Growth percent rate
HCT-116 = test: NCI60 one-dose screen (10 μM), Colon Cancer; format: cell-based; details: Homo sapiens; 10 μM; HCT-116, Colon Cancer; read-out: Growth percent rate
M14 = test: NCI60 one-dose screen (10 μM), Melanoma; format: cell-based; details: Homo sapiens; 10 μM; M14, Melanoma; read-out: Growth percent rate
HCT-15 = test: NCI60 one-dose screen (10 μM), Colon Cancer; format: cell-based; details: Homo sapiens; 10 μM; HCT-15, Colon Cancer; read-out: Growth percent rate
OVCAR-3 = test: NCI60 one-dose screen (10 μM), Ovarian Cancer; format: cell-based; details: Homo sapiens; 10 μM; OVCAR-3, Ovarian Cancer; read-out: Growth percent rate
SK-MEL-28 = test: NCI60 one-dose screen (10 μM), Melanoma; format: cell-based; details: Homo sapiens; 10 μM; SK-MEL-28, Melanoma; read-out: Growth percent rate
RPMI-8226 = test: NCI60 one-dose screen (10 μM), Leukemia; format: cell-based; details: Homo sapiens; 10 μM; RPMI-8226, Leukemia; read-out: Growth percent rate
SK-MEL-5 = test: NCI60 one-dose screen (10 μM), Melanoma; format: cell-based, human; details: Homo sapiens; 10 μM; SK-MEL-5, Melanoma; read-out: Growth percent rate
HL-60(TB) = test: NCI60 one-dose screen (10 μM), Leukemia; format: cell-based; details: Homo sapiens; 10 μM; HL-60(TB), Leukemia; read-out: Growth percent rate
SNB-19 = test: NCI60 one-dose screen (10 μM), CNS Cancer; format: cell-based; details: Homo sapiens; 10 μM; SNB-19, CNS Cancer; read-out: Growth percent rate
IGROV1 = test: NCI60 one-dose screen (10 μM), Ovarian Cancer; format: cell-based; details: Homo sapiens, IGROV-1; 10 μM; IGROV1, Ovarian Cancer; read-out: Growth percent rate
CCRF-CEM = test: NCI60 one-dose screen (10 μM), Leukemia; format: cell-based; details: Homo sapiens, 10 μM, Leukemia, read-out: Growth percent rate
SK-MEL-2 = test: NCI60 one-dose screen (10 μM), Melanoma; format: cell-based; details: Homo sapiens; 10 μM; SK-MEL-2, Melanoma; read-out: Growth percent rate
SN12C = test: NCI60 one-dose screen (10 μM), Renal Cancer; format: cell-based; details: Homo sapiens, 10 μM, Renal Cancer, read-out: Growth percent rate
HT29 = test: NCI60 one-dose screen (10 μM), Colon Cancer; format: cell-based; details: Homo sapiens, HT-29; 10 μM; HT29, Colon Cancer; read-out: Growth percent rate
SF-268 = test: NCI60 one-dose screen (10 μM), CNS Cancer; format: cell-based; details: Homo sapiens; 10 μM; SF-268, CNS Cancer; read-out: Growth percent rate
CAKI-1 = test: NCI60 one-dose screen (10 μM), Renal Cancer; format: cell-based; details: Homo sapiens; 10 μM; CAKI-1, Renal Cancer; read-out: Growth percent rate
EKVX = test: NCI60 one-dose screen (10 μM), Non-small Cell Lung Cancer; format: cell-based; details: Homo sapiens, 10 μM, Non-small Cell Lung Cancer, read-out: Growth percent rate
KM12 = test: NCI60 one-dose screen (10 μM), Colon Cancer; format: cell-based, human; details: Homo sapiens; 10 μM; KM12, Colon Cancer; read-out: Growth percent rate
OVCAR-4 = test: NCI60 one-dose screen (10 μM), Ovarian Cancer; format: cell-based; details: Homo sapiens; 10 μM; OVCAR-4, Ovarian Cancer; read-out: Growth percent rate
NCI-H322M = test: NCI60 one-dose screen (10 μM), Non-small Cell Lung Cancer; format: cell-based; details: Homo sapiens, 10 μM, Non-small Cell Lung Cancer, read-out: Growth percent rate
UACC-257 = test: NCI60 one-dose screen (10 μM), Melanoma; format: cell-based; details: Homo sapiens; 10 μM; UACC-257, Melanoma; read-out: Growth percent rate
786–0 = test: NCI60 one-dose screen (10 μM), Renal Cancer; format: cell-based; details: Homo sapiens; 10 μM; 786-0, Renal Cancer; read-out: Growth percent rate
RXF 393 = test: NCI60 one-dose screen (10 μM), Renal Cancer; format: cell-based, human; details: Homo sapiens; 10 μM; RXF 393, Renal Cancer; read-out: Growth percent rate
HS 578T = test: NCI60 one-dose screen (10 μM), Breast Cancer; format: cell-based; details: Homo sapiens; 10 μM; HS 578T, Breast Cancer; read-out: Growth percent rate
A549/ATCC = test: NCI60 one-dose screen (10 μM), Non-small Cell Lung Cancer; format: cell-based; details: Homo sapiens; 10 μM; A549/ATCC, Non-small Cell Lung Cancer; read-out: Growth percent rate
COLO 205 = test: NCI60 one-dose screen (10 μM), Colon Cancer; format: cell-based, human; details: Homo sapiens; 10 μM; COLO 205, Colon Cancer; read-out: Growth percent rate
SF-539 = test: NCI60 one-dose screen (10 μM), CNS Cancer; format: cell-based, human; details: Homo sapiens; 10 μM; SF-539, CNS Cancer; read-out: Growth percent rate
NCI-H522 = test: NCI60 one-dose screen (10 μM), Non-small Cell Lung Cancer; format: cell-based; details: Homo sapiens; 10 μM; NCI-H522, Non-small Cell Lung Cancer; read-out: Growth percent rate
K-562 = test: NCI60 one-dose screen (10 μM), Leukemia; format: cell-based; details: Homo sapiens, K562; 10 μM; K-562, Leukemia; read-out: Growth percent rate
MDA-MB-435 = test: NCI60 one-dose screen (10 μM), Melanoma; format: cell-based; details: Homo sapiens; 10 μM; MDA-MB-435, Melanoma; read-out: Growth percent rate
ACHN = test: NCI60 one-dose screen (10 μM), Renal Cancer; format: cell-based; details: Homo sapiens, 10 μM, Renal Cancer, read-out: Growth percent rate
HOP-62 = test: NCI60 one-dose screen (10 μM), Non-small Cell Lung Cancer; format: cell-based; details: Homo sapiens; 10 μM; HOP-62, Non-small Cell Lung Cancer; read-out: Growth percent rate
MALME-3M = test: NCI60 one-dose screen (10 μM), Melanoma; format: cell-based; details: Homo sapiens; 10 μM; MALME-3M, Melanoma; read-out: Growth percent rate
HCC-2998 = test: NCI60 one-dose screen (10 μM), Colon Cancer; format: cell-based; details: Homo sapiens; 10 μM; HCC-2998, Colon Cancer; read-out: Growth percent rate
LOX IMVI = test: NCI60 one-dose screen (10 μM), Melanoma; format: cell-based, human; details: Homo sapiens; 10 μM; LOX IMVI, Melanoma; read-out: Growth percent rate
OVCAR-8 = test: NCI60 one-dose screen (10 μM), Ovarian Cancer; format: cell-based; details: Homo sapiens; 10 μM; OVCAR-8, Ovarian Cancer; read-out: Growth percent rate
MCF7 = test: NCI60 one-dose screen (10 μM), Breast Cancer; format: cell-based; details: Homo sapiens; 10 μM; MCF7, Breast Cancer; read-out: Growth percent rate
TK-10 = test: NCI60 one-dose screen (10 μM), Renal Cancer; format: cell-based; details: Homo sapiens; 10 μM; TK-10, Renal Cancer; read-out: Growth percent rate
SF-295 = test: NCI60 one-dose screen (10 μM), CNS Cancer; format: cell-based; details: Homo sapiens; 10 μM; SF-295, CNS Cancer; read-out: Growth percent rate

Work on `CCC12C=CCN3CCC4(c5ccc(OC)cc5N(C)C4C(O)(C(=O)OC)C1OC(=O)CCC(=O)O)C32` (stereo not drawn) [Compound 15, 17-(O-3-carboxypropanoyl)vindoline] yielded an activity at 10 µM (SW-620) of 102%, an activity at 10 µM (MOLT-4) of 106% and an activity at 10 µM (NCI-H23) of 92.5%. The activity at 10 µM (HCT-116) was 98.6%, the activity at 10 µM (M14) was 96.5% and the activity at 10 µM (HCT-15) was 98.4%. It also gave an activity at 10 µM (OVCAR-3) of 74.9%, an activity at 10 µM (SK-MEL-28) of 86.7% and an activity at 10 µM (RPMI-8226) of 84.2%. The activity at 10 µM (SK-MEL-5) was 96.8%, the activity at 10 µM (HL-60(TB)) was 114% and the activity at 10 µM (SNB-19) was 94.9%. The activity at 10 µM (IGROV1) was 90%, the activity at 10 µM (CCRF-CEM) was 105% and the activity at 10 µM (SK-MEL-2) was 100%. It also gave an activity at 10 µM (SN12C) of 92.9%, an activity at 10 µM (HT29) of 89.9% and an activity at 10 µM (SF-268) of 87.2%. It also gave an activity at 10 µM (CAKI-1) of 95.5%, an activity at 10 µM (EKVX) of 87.4% and an activity at 10 µM (KM12) of 82.8%. It also gave an activity at 10 µM (OVCAR-4) of 80.2%, an activity at 10 µM (NCI-H322M) of 73.9% and an activity at 10 µM (UACC-257) of 91.5%. The activity at 10 µM (786–0) was 98.1%, the activity at 10 µM (RXF 393) was 96.6% and the activity at 10 µM (HS 578T) was 69.3%. The activity at 10 µM (A549/ATCC) was 94.3%, the activity at 10 µM (COLO 205) was 93.6% and the activity at 10 µM (SF-539) was 92.9%. The activity at 10 µM (NCI-H522) was 84.2%, the activity at 10 µM (K-562) was 90.5% and the activity at 10 µM (MDA-MB-435) was 110%. It also gave an activity at 10 µM (ACHN) of 102%, an activity at 10 µM (HOP-62) of 102% and an activity at 10 µM (MALME-3M) of 90.3%. The activity at 10 µM (HCC-2998) was 71%, the activity at 10 µM (LOX IMVI) was 107% and the activity at 10 µM (OVCAR-8) was 91.8%. The activity at 10 µM (MCF7) was 68.2%, the activity at 10 µM (TK-10) was 90.8% and the activity at 10 µM (SF-295) was 113%.
With `CCC12C=CCN3CCC4(c5cc(NC(=O)CN6CCN(C)CC6)c(OC)cc5N(C)C4C(O)(C(=O)OC)C1OC(C)=O)C32` (stereo not drawn) [Compound 16] the activity at 10 µM (SW-620) was 124%, the activity at 10 µM (MOLT-4) was 108% and the activity at 10 µM (NCI-H23) was 103%. For the same molecule, the activity at 10 µM (HCT-116) was 101%, the activity at 10 µM (M14) was 101% and the activity at 10 µM (HCT-15) was 101%. For the same molecule, the activity at 10 µM (OVCAR-3) was 138%, the activity at 10 µM (SK-MEL-28) was 111% and the activity at 10 µM (RPMI-8226) was 102%. It also gave an activity at 10 µM (SK-MEL-5) of 102%, an activity at 10 µM (HL-60(TB)) of 97.5% and an activity at 10 µM (SNB-19) of 105%. The activity at 10 µM (IGROV1) was 112%, the activity at 10 µM (CCRF-CEM) was 112% and the activity at 10 µM (SK-MEL-2) was 108%. The activity at 10 µM (SN12C) was 109%, the activity at 10 µM (HT29) was 104% and the activity at 10 µM (SF-268) was 116%. The activity at 10 µM (CAKI-1) was 89.5%, the activity at 10 µM (EKVX) was 94.8% and the activity at 10 µM (KM12) was 112%. For the same molecule, the activity at 10 µM (OVCAR-4) was 109%, the activity at 10 µM (NCI-H322M) was 101% and the activity at 10 µM (UACC-257) was -7.95%. The activity at 10 µM (786–0) was 106%, the activity at 10 µM (RXF 393) was 102% and the activity at 10 µM (HS 578T) was 111%. It also gave an activity at 10 µM (A549/ATCC) of 97.1%, an activity at 10 µM (COLO 205) of 105% and an activity at 10 µM (SF-539) of 101%. It also gave an activity at 10 µM (NCI-H522) of 90.2%, an activity at 10 µM (K-562) of 85.8% and an activity at 10 µM (MDA-MB-435) of 114%. For the same molecule, the activity at 10 µM (ACHN) was 104%, the activity at 10 µM (HOP-62) was 104% and the activity at 10 µM (MALME-3M) was 97.5%. The activity at 10 µM (HCC-2998) was 106%, the activity at 10 µM (LOX IMVI) was 95.2% and the activity at 10 µM (OVCAR-8) was 97.8%. The activity at 10 µM (MCF7) was 84.3%, the activity at 10 µM (TK-10) was 103% and the activity at 10 µM (SF-295) was 98.8%.

Reference: article PMC11277489, “Novel Piperazine Derivatives of Vindoline as Anticancer Agents” (International Journal of Molecular Sciences, 2024)
